Measurements from patent US10039780B2 (Chiesi Farmaceutici S.p.A., priority 2015, dated 2018).
One block for each molecule: values may come before it.

Key:
Assay type in all cases: physicochemical
[1] = Photostability of solid cangrelor in quartz cuvettes, reverse phase HPLC
Procedure: Namely, solid cangrelor was placed in two quartz cuvettes. Both cuvettes were placed in a chamber and exposed to a combination of […] (near UV) and […] (visible) light for a total of 7.8×10^6 LUX hours and 221 watt hours/m^2, but one cuvette was wrapped in aluminum foil. After 17 days, the levels of impurities in the sample were determined by reverse phase HPLC.

[2] = Accelerated pH stability of cangrelor in buffer solutions, reverse phase HPLC; settings: 1 mg/mL, 7 days at 40° C. protected from light
Procedure: The extent of degradation was determined using a reverse phase HPLC method.

[3] = Solution stability of cangrelor in purified water, reverse phase HPLC; settings: 1 mg/mL in purified water
[4] = Long term stability at 25° C. and 60% relative humidity (HPLC, ion chromatography, Karl-Fischer); settings: for Impurity A concentration / Impurity B concentration / Impurity C concentration / Total impurities concentration / Moisture concentration / Impurity E concentration: 25° C./60% relative humidity; for Moisture concentration: Karl-Fischer; for storage stability, conclusion in words: storage at 25° C./60% relative humidity; for Impurity E concentration: ion chromatography
Procedure: Their pH was adjusted to 8.5 prior to lyophilization and they were stored in glass vials stoppered with a stopper specifically selected for its ability to retain as little moisture as possible after autoclaving and after drying for 8 h at 105° C. […] Cangrelor lots API A-B are cangrelor tetrasodium. They were stored in double polyethylene bags in […]. […] In addition their moisture content was determined by Karl-Fischer titration.

[5] = Hygroscopicity by dynamic vapor adsorption analysis
[6] = after 8 days, 4° C. and ambient humidity
[7] = after 8 days, 25° C. and 60% relative humidity
[8] = after 8 days, 40° C. and ambient humidity

- total level of impurities ([1]; solid cangrelor, initially): 0.8 % (w/w)
- total level of impurities ([1]; solid, exposed sample, near UV and visible light, 7.8×10^6 LUX hours and 221 watt hours/m^2, after 17 days): 4.3 % (w/w)
- total level of impurities ([1]; solid, shielded sample (cuvette wrapped in aluminum foil), after 17 days): 1.2 % (w/w)
- Impurity A ([2]; pH 1.0, 0.1M HCl): 28.51 % w/w
- Impurity D ([2]; pH 1.0, 0.1M HCl): 68.12 % w/w
- Total Impurities ([2]; pH 1.0, 0.1M HCl): 97.28 % w/w
- Impurity A ([2]; pH 3.0, Phosphate): 28.69 % w/w
- Impurity D ([2]; pH 3.0, Phosphate): 0.81 % w/w
- Total Impurities ([2]; pH 3.0, Phosphate): 31.48 % w/w
- Impurity A ([2]; pH 5.0, Phosphate): 20.70 % w/w
- Total Impurities ([2]; pH 5.0, Phosphate): 22.16 % w/w
- Impurity A ([2]; pH 7.0, Phosphate): 14.31 % w/w
- Total Impurities ([2]; pH 7.0, Phosphate): 15.71 % w/w
- Impurity A ([2]; pH 9.0, Phosphate): 3.25 % w/w
- Total Impurities ([2]; pH 9.0, Phosphate): 4.90 % w/w
- Impurity A ([2]; pH 11.0, Phosphate): 2.61 % w/w
- Total Impurities ([2]; pH 11.0, Phosphate): 4.28 % w/w
- Impurity A ([2]; pH 12.0, 0.1M NaOH): 2.42 % w/w
- Total Impurities ([2]; pH 12.0, 0.1M NaOH): 4.39 % w/w
- Cangrelor measured level ([3]; Initial): 98.23 % w/w
- Impurity A measured level ([3]; Initial): 0.16 % w/w
- Impurity C measured level ([3]; Initial): 0.28 % w/w
- Total Impurities measured level ([3]; Initial): 1.76 % w/w
- Cangrelor measured level [3, 6]: 98.45 % w/w
- Impurity A measured level [3, 6]: 0.22 % w/w
- Impurity C measured level [3, 6]: 0.26 % w/w
- Total Impurities measured level [3, 6]: 1.54 % w/w
- Cangrelor measured level [3, 7]: 96.94 % w/w
- Impurity A measured level [3, 7]: 1.58 % w/w
- Impurity C measured level [3, 7]: 0.27 % w/w
- Total Impurities measured level [3, 7]: 3.06 % w/w
- Cangrelor measured level [3, 8]: 90.46 % w/w
- Impurity A measured level [3, 8]: 7.50 % w/w
- Impurity C measured level [3, 8]: 0.37 % w/w
- Total Impurities measured level [3, 8]: 9.56 % w/w
SMILES: CSCCNc1nc(SCCC(F)(F)F)nc2c1ncn2[C@@H]1O[C@H](COP(=O)(O)OP(=O)(O)C(Cl)(Cl)P(=O)(O)O)[C@@H](O)[C@H]1O [Cangrelor, [dichloro-[[[(2R,3S,4R,5R)-3,4-dihydroxy-5-[6-(2-methylsulfanylethylamino)-2-(3,3,3-trifluoropropylsulfanyl)purin-9-yl]oxolan-2-yl]methoxy-hydroxyphosphoryl]oxy-hydroxyphosphoryl]methyl]phosphonic acid]

- Impurity A concentration ([4]; 1 month): 0.36 % w/w
- Impurity B concentration ([4]; 1 month): 0.19 % w/w
- Impurity C concentration ([4]; 1 month): 0.06 % w/w
- Total impurities concentration ([4]; 1 month): 1.10 % w/w
- Moisture concentration ([4]; 1 month): 6.9 % w/w
- Impurity A concentration ([4]; 3 months): 0.51 % w/w
- Impurity B concentration ([4]; 3 months): 0.32 % w/w
- Impurity C concentration ([4]; 3 months): 0.08 % w/w
- Total impurities concentration ([4]; 3 months): 1.50 % w/w
- Moisture concentration ([4]; 3 months): 9.9 % w/w
- Impurity A concentration ([4]; 6 months): 0.70 % w/w
- Impurity B concentration ([4]; 6 months): 0.48 % w/w
- Impurity C concentration ([4]; 6 months): 0.19 % w/w
- Total impurities concentration ([4]; 6 months): 1.90 % w/w
- Moisture concentration ([4]; 6 months): 11.6 % w/w
- Impurity A concentration ([4]; Initial): 0.31 % w/w
- Impurity B concentration ([4]; Initial): 0.11 % w/w
- Impurity C concentration ([4]; Initial): <0.05 % w/w
- Total impurities concentration ([4]; Initial): 0.80 % w/w
- Moisture concentration ([4]; Initial): 7.0 % w/w
SMILES: CSCCNc1nc(SCCC(F)(F)F)nc2c1ncn2[C@@H]1O[C@H](COP(=O)([O-])OP(=O)([O-])C(Cl)(Cl)P(=O)([O-])[O-])[C@@H](O)[C@H]1O.[Na+].[Na+].[Na+].[Na+] [API B]
- storage stability, conclusion in words [4]: display significant degradation over time

- hygroscopicity [5]: hygroscopic
SMILES: CSCCNc1nc(SCCC(F)(F)F)nc2c1ncn2[C@@H]1O[C@H](COP(=O)(O)OP(=O)(O)C(Cl)(Cl)P(=O)(O)O)[C@@H](O)[C@H]1O [cangrelor tetrasodium]

- Impurity A concentration ([4]; 1 month): 0.28 % w/w
- Impurity B concentration ([4]; 1 month): 0.22 % w/w
- Total impurities concentration ([4]; 1 month): 1.10 % w/w
- Moisture concentration ([4]; 1 month): 7.7 % w/w
- Impurity E concentration ([4]; 1 month): 0.08 % w/w
- Impurity A concentration ([4]; 3 months): 0.47 % w/w
- Impurity B concentration ([4]; 3 months): 0.33 % w/w
- Total impurities concentration ([4]; 3 months): 1.40 % w/w
- Moisture concentration ([4]; 3 months): 11.3 % w/w
- Impurity E concentration ([4]; 3 months): 0.11 % w/w
- Impurity A concentration ([4]; Initial): 0.15 % w/w
- Impurity B concentration ([4]; Initial): 0.11 % w/w
- Total impurities concentration ([4]; Initial): 0.70 % w/w
- Moisture concentration ([4]; Initial): 4.3 % w/w
- Impurity E concentration ([4]; Initial): 0.06 % w/w
SMILES: CSCCNc1nc(SCCC(F)(F)F)nc2c1ncn2[C@@H]1O[C@H](COP(=O)([O-])OP(=O)([O-])C(Cl)(Cl)P(=O)([O-])[O-])[C@@H](O)[C@H]1O.[Na+].[Na+].[Na+].[Na+] [API A]
- storage stability, conclusion in words [4]: display significant degradation over time
